The source made the active and inactive calls.
What was measured:
[1] = tested on: Bacillus subtilis; experiment: Bactericidal activity against Bacillus subtilis MTCC 121 incubated for 24 hrs followed by transfer of microbial suspension to Mueller Hinton agar plates and measured after 24 hrs post transfer; type: functional; details: MTCC 121, 24 h
[2] = tested on: Candida albicans; experiment: Inhibition of ergosterol in Candida albicans MTCC 183 after 20 hrs by UV spectrophotometric method; type: functional, organism-based
[3] = tested on: Bacillus subtilis; experiment: Antibacterial activity against Bacillus subtilis MTCC 121 after 24 hrs by well diffusion method; type: functional; details: MTCC 121, 24 h
[4] = tested on: Staphylococcus aureus; experiment: Antibacterial activity against Staphylococcus aureus MTCC 96 after 24 hrs by well diffusion method; type: functional; details: MTCC 96, 24 h
[5] = tested on: Staphylococcus aureus; experiment: Antibacterial activity against Staphylococcus aureus MLS16 MTCC 2940 after 24 hrs by well diffusion method; type: functional; details: MLS16 MTCC 2940, 24 h
[6] = tested on: Micrococcus luteus; experiment: Antibacterial activity against Micrococcus luteus MTCC 2470 after 24 hrs by well diffusion method; type: functional; details: MTCC 2470, 24 h
[7] = tested on: Raoultella planticola; experiment: Antibacterial activity against Klebsiella planticola MTCC 530 after 24 hrs by well diffusion method; type: functional; details: MTCC 530, 24 h
[8] = tested on: Escherichia coli; experiment: Antibacterial activity against Escherichia coli MTCC 739 after 24 hrs by well diffusion method; type: functional; details: MTCC 739, 24 h
[9] = tested on: Pseudomonas aeruginosa; experiment: Antibacterial activity against Pseudomonas aeruginosa MTCC 2453 after 24 hrs by well diffusion method; type: functional; details: MTCC 2453, 24 h
[10] = tested on: Staphylococcus aureus; experiment: Bactericidal activity against Staphylococcus aureus MTCC 96 incubated for 24 hrs followed by transfer of microbial suspension to Mueller Hinton agar plates and measured after 24 hrs post transfer; type: functional; details: MTCC 96, 24 h
[11] = tested on: Staphylococcus aureus; experiment: Bactericidal activity against Staphylococcus aureus MLS16 MTCC 2940 incubated for 24 hrs followed by transfer of microbial suspension to Mueller Hinton agar plates and measured after 24 hrs post transfer; type: functional; details: MLS16 MTCC 2940, 24 h
[12] = tested on: Micrococcus luteus; experiment: Bactericidal activity against Micrococcus luteus MTCC 2470 incubated for 24 hrs followed by transfer of microbial suspension to Mueller Hinton agar plates and measured after 24 hrs post transfer; type: functional; details: MTCC 2470, 24 h
[13] = tested on: Raoultella planticola; experiment: Bactericidal activity against Klebsiella planticola MTCC 530 incubated for 24 hrs followed by transfer of microbial suspension to Mueller Hinton agar plates and measured after 24 hrs post transfer; type: functional; details: MTCC 530, 24 h
[14] = tested on: Escherichia coli; experiment: Bactericidal activity against Escherichia coli MTCC 739 incubated for 24 hrs followed by transfer of microbial suspension to Mueller Hinton agar plates and measured after 24 hrs post transfer; type: functional; details: MTCC 739, 24 h
[15] = tested on: Pseudomonas aeruginosa; experiment: Bactericidal activity against Pseudomonas aeruginosa MTCC 2453 incubated for 24 hrs followed by transfer of microbial suspension to Mueller Hinton agar plates and measured after 24 hrs post transfer; type: functional; details: MTCC 2453, 24 h
[16] = tested on: Candida albicans; experiment: Antifungal activity against Candida albicans MTCC 183 after 24 hrs by well diffusion method; type: functional; details: MTCC 183, 24 h
[17] = tested on: Candida albicans; experiment: Antifungal activity against Candida albicans MTCC 227 after 24 hrs by well diffusion method; type: functional; details: MTCC 227, 24 h
[18] = tested on: Candida albicans; experiment: Antifungal activity against Candida albicans MTCC 854 after 24 hrs by well diffusion method; type: functional; details: MTCC 854, 24 h
[19] = tested on: Candida albicans; experiment: Antifungal activity against Candida albicans MTCC 1637 after 24 hrs by well diffusion method; type: functional; details: MTCC 1637, 24 h
[20] = tested on: Candida albicans; experiment: Antifungal activity against Candida albicans MTCC 3018 after 24 hrs by well diffusion method; type: functional; details: MTCC 3018, 24 h
[21] = tested on: Candida albicans; experiment: Antifungal activity against Candida albicans MTCC 3017 after 24 hrs by well diffusion method; type: functional; details: MTCC 3017, 24 h
[22] = tested on: Candida albicans; experiment: Antifungal activity against Candida albicans MTCC 3958 after 24 hrs by well diffusion method; type: functional; details: MTCC 3958, 24 h
[23] = tested on: Candida albicans; experiment: Antifungal activity against Candida albicans MTCC 4748 after 24 hrs by well diffusion method; type: functional; details: MTCC 4748, 24 h
[24] = tested on: Candida albicans; experiment: Antifungal activity against Candida albicans MTCC 7315 after 24 hrs by well diffusion method; type: functional; details: MTCC 7315, 24 h
[25] = tested on: Candida parapsilosis; experiment: Antifungal activity against Candida parapsilosis MTCC 1744 after 24 hrs by well diffusion method; type: functional; details: MTCC 1744, 24 h
[26] = tested on: [Candida] aaseri; experiment: Antifungal activity against Candida aaseri MTCC 1962 after 24 hrs by well diffusion method; type: functional; details: Yamadazyma aaseri, MTCC 1962, 24 h
[27] = tested on: Nakaseomyces glabratus; experiment: Antifungal activity against Candida glabrata MTCC 3019 after 24 hrs by well diffusion method; type: functional
[28] = tested on: Pichia kudriavzevii; experiment: Antifungal activity against Candida krusei MTCC 3020 after 24 hrs by well diffusion method; type: functional
[29] = tested on: Pichia sporocuriosa; experiment: Antifungal activity against Issatchenkia hanoiensis MTCC 4755 after 24 hrs by well diffusion method; type: functional; details: MTCC 4755, 24 h
[30] = tested on: Candida albicans; experiment: Fungicidal activity against Candida albicans MTCC 183 incubated for 24 hrs followed by transfer of microbial suspension to Sabouraud dextrose agar plates and measured after 24 hrs post transfer; type: functional; details: MTCC 183, 24 h
[31] = tested on: Candida albicans; experiment: Fungicidal activity against Candida albicans MTCC 227 incubated for 24 hrs followed by transfer of microbial suspension to Sabouraud dextrose agar plates and measured after 24 hrs post transfer; type: functional; details: MTCC 227, 24 h
[32] = tested on: Candida albicans; experiment: Fungicidal activity against Candida albicans MTCC 854 incubated for 24 hrs followed by transfer of microbial suspension to Sabouraud dextrose agar plates and measured after 24 hrs post transfer; type: functional; details: MTCC 854, 24 h
[33] = tested on: Candida albicans; experiment: Fungicidal activity against Candida albicans MTCC 1637 incubated for 24 hrs followed by transfer of microbial suspension to Sabouraud dextrose agar plates and measured after 24 hrs post transfer; type: functional; details: MTCC 1637, 24 h
[34] = tested on: Candida albicans; experiment: Fungicidal activity against Candida albicans MTCC 3017 incubated for 24 hrs followed by transfer of microbial suspension to Sabouraud dextrose agar plates and measured after 24 hrs post transfer; type: functional; details: MTCC 3017, 24 h
[35] = tested on: Candida albicans; experiment: Fungicidal activity against Candida albicans MTCC 3018 incubated for 24 hrs followed by transfer of microbial suspension to Sabouraud dextrose agar plates and measured after 24 hrs post transfer; type: functional; details: MTCC 3018, 24 h
[36] = tested on: Candida albicans; experiment: Fungicidal activity against Candida albicans MTCC 3958 incubated for 24 hrs followed by transfer of microbial suspension to Sabouraud dextrose agar plates and measured after 24 hrs post transfer; type: functional; details: MTCC 3958, 24 h
[37] = tested on: Candida albicans; experiment: Fungicidal activity against Candida albicans MTCC 4748 incubated for 24 hrs followed by transfer of microbial suspension to Sabouraud dextrose agar plates and measured after 24 hrs post transfer; type: functional; details: MTCC 4748, 24 h
[38] = tested on: Candida albicans; experiment: Fungicidal activity against Candida albicans MTCC 7315 incubated for 24 hrs followed by transfer of microbial suspension to Sabouraud dextrose agar plates and measured after 24 hrs post transfer; type: functional; details: MTCC 7315, 24 h
[39] = tested on: Candida parapsilosis; experiment: Fungicidal activity against Candida parapsilosis MTCC 1744 incubated for 24 hrs followed by transfer of microbial suspension to Sabouraud dextrose agar plates and measured after 24 hrs post transfer; type: functional; details: Lodderomyces parapsilosis, MTCC 1744, 24 h
[40] = tested on: [Candida] aaseri; experiment: Fungicidal activity against Candida aaseri MTCC 1962 incubated for 24 hrs followed by transfer of microbial suspension to Sabouraud dextrose agar plates and measured after 24 hrs post transfer; type: functional; details: Yamadazyma aaseri, MTCC 1962, 24 h
[41] = tested on: Nakaseomyces glabratus; experiment: Fungicidal activity against Candida glabrata MTCC 3019 incubated for 24 hrs followed by transfer of microbial suspension to Sabouraud dextrose agar plates and measured after 24 hrs post transfer; type: functional
[42] = tested on: Pichia kudriavzevii; experiment: Fungicidal activity against Candida krusei MTCC 3020 incubated for 24 hrs followed by transfer of microbial suspension to Sabouraud dextrose agar plates and measured after 24 hrs post transfer; type: functional
[43] = tested on: Pichia sporocuriosa; experiment: Fungicidal activity against Issatchenkia hanoiensis MTCC 4755 incubated for 24 hrs followed by transfer of microbial suspension to Sabouraud dextrose agar plates and measured after 24 hrs post transfer; type: functional; details: MTCC 4755, 24 h
[44] = tested on: Bacillus subtilis; experiment: Antibiofilm activity against Bacillus subtilis MTCC 121 after 24 hrs by crystal violet staining-based assay; type: functional, organism-based; details: Bacillus subtilis, MTCC 121, 24 h; read-out: IC50
[45] = tested on: Staphylococcus aureus; experiment: Antibiofilm activity against Staphylococcus aureus MTCC 96 after 24 hrs by crystal violet staining-based assay; type: functional, organism-based; details: Staphylococcus aureus, MTCC 96, 24 h; read-out: IC50
[46] = tested on: Staphylococcus aureus; experiment: Antibiofilm activity against Staphylococcus aureus MLS16 MTCC 2940 after 24 hrs by crystal violet staining-based assay; type: functional, organism-based; details: Staphylococcus aureus, MLS16 MTCC 2940, 24 h; read-out: IC50
[47] = tested on: Pseudomonas aeruginosa; experiment: Antibiofilm activity against Pseudomonas aeruginosa MTCC 2453 after 24 hrs by crystal violet staining-based assay; type: functional, organism-based; details: Pseudomonas aeruginosa, MTCC 2453, 24 h; read-out: IC50
[48] = tested on: Raoultella planticola; experiment: Antibiofilm activity against Klebsiella planticola MTCC 530 after 24 hrs by crystal violet staining-based assay; type: functional, organism-based; details: Klebsiella planticola, MTCC 530, 24 h; read-out: IC50

CN1CCN(C(=O)c2nc(-c3ccccc3)c3c(C(F)(F)F)cc(-c4ccccc4)nc3n2)CC1
3.9 µg/mL: MIC [16] | MIC [17] | MIC [21] | MFC [30]
5.4 µg/mL: IC50 [45]
active: inhibition [2] Dose-dependent effect
62.5 µg/mL: MFC [38] | MFC [39]
15.6 µg/mL: MIC [3] | MIC [5] | MIC [6] | MIC [8] | MBC [10] | MBC [12] | MIC [20] | MIC [23] | MIC [29] | MFC [32] | MFC [33] | MFC [36] | MFC [40]
10.8 µg/mL: IC50 [44] | IC50 [46]
62.4 µg/mL: MBC [13] | MBC [15]
21.6 µg/mL: IC50 [47] | IC50 [48]
7.8 µg/mL: MIC [4] | MIC [18] | MIC [19] | MIC [22] | MIC [26] | MFC [31] | MFC [34]
inactive: MIC [27] | MIC [28] | MFC [41] | MFC [42]
31.2 µg/mL: MBC [1] | MIC [7] | MIC [9] | MBC [11] | MBC [14] | MIC [24] | MIC [25] | MFC [35] | MFC [37] | MFC [43]

Source: ChEMBL document CHEMBL4219190, “Studies on synthesis of novel pyrido[2,3-d]pyrimidine derivatives, evaluation of their antimicrobial activity and molecular docking” (Bioorg Med Chem Lett, 2018)
